Measured values as given in paper PMC12332266 (Frontiers in Pharmacology, 2025).
“And” between values parts separate entries of the source, which are not always exact repeats. Identical values can stand only once. Like-named read-outs stand apart in the source and are kept apart here. Each block holds one compound with its values, some of them ahead of it.

Assays:
[1] = test system: hiPSC-CM (iCell Cardiomyocytes^2); assay: Intracellular miRNA expression by RT-qPCR in hiPSC-CM pellets after 72-hour treatment; settings: for fold induction at 0.1 µM / fold induction at 0.3 µM / fold induction at 1 µM / fold induction at 3 µM / fold induction at 0.01 µM / fold induction at 0.03 µM: Homo sapiens
Description: (§1) Culture media change was performed every 2 days.
Total RNA was extracted from hiPSC-CM using the miRNeasy 96 Kit (Qiagen, Hilden, Germany) following the manufacturer’s recommendations. After the extraction, RNA purity was assessed by NanoDrop™ 8000 Spectrophotometer (Thermo Fisher Scientific Inc.). 5–10 ng/μL of RNA per sample were reverse transcribed and pre-amplified by using the TaqMan™ Advanced miRNA cDNA Synthesis Kit (Thermo Fisher Scientific Inc.). The synthesized cDNA was used for RT-qPCR with selected TaqMan™ assays (Thermo Fischer Scientific Inc.). RT-qPCR was carried out following the Applied Biosciences TaqMan miRNA expression assay protocol on a ViiA7 instrument (Thermo Fisher Scientific, Inc.). […] Therefore, to maximize the number of drugs and concentrations, explored in the same study, we pooled the triplicates for intracellular profiling of miRNAs. Therefore, no statistical analysis was performed on the data of miRNA profiling in the pellets of hiPSC-CM.
Following RTCA CardioECR assessment, hiPSC-CM cell pellets were collected, and total RNA was extracted and purified to investigate miRNAs upregulation by RT-qPCR. […] For the initial assessment of intracellular miRNAs in 12 different treatments, encompassing various drug classes, we used a panel of 17 miRNAs, which we selected from the publicly available data focusing mainly on in vitro models and structural cardiotoxicants (Supplementary Table S2).

[2] = test system: hiPSC-CM (iCell Cardiomyocytes^2); assay: RTCA CardioECR assessment (impedance and electrophysiology parameters)
Description: as §1
After seeding on fibronectin-coated xCELLigence ePlates (Agilent Technologies, Inc. Santa Clara, CA, USA), iCell^2 CM were monitored continuously through impedance electrodes. The following impedance parameters were measured: Cell Index (CI, measure of cell “health” and monolayer integrity), beating rate (BR) and amplitude (CI Amplitude, magnitude of contraction). Electrophysiology-like parameters (Field Potential Duration (FPD), considered as a surrogate for QT in in vivo studies, and Spike Amplitude (SA), depolarization induced by Na^+ channel opening) were measured starting from day 4–6, following the monolayer formation. […] All RTCA CardioECR data were double normalized (DMSO control and the baseline) with no further statistical group comparison for the normalized parameters. The variability of the data within the treatment groups was assessed by standard deviation.

[3] = ref extensive literature search, cited from earlier work
[4] = 72 h, read-out: hsa-miR-7-5p fold change
[5] = 72 h, read-out: hsa-miR-29a-5p fold change
[6] = 72 h, read-out: hsa-miR-126-3p fold change
[7] = 72 h, read-out: hsa-miR-133b fold change
[8] = 72 h, read-out: hsa-miR-146b-5p fold change
[9] = 72 h, read-out: hsa-miR-182-5p fold change
[10] = 72 h, read-out: hsa-miR-185-3p fold change
[11] = 72 h, read-out: hsa-miR-187-3p fold change
[12] = 72 h, read-out: hsa-miR-208b-3p fold change
[13] = 72 h, read-out: hsa-miR-365a-5p fold change
[14] = 72 h, read-out: hsa-miR-[…] change
[15] = hiPSC-CM, 72-hour treatment, lowest concentration causing at least 20% change from baseline

Compound: COc1nc(N)nc2c1ncn2[C@@H]1O[C@H](COP(=O)(N[C@@H](C)C(=O)OCC(C)(C)C)Oc2cccc3ccccc23)[C@@H](O)[C@@]1(C)O (stereo partly shown) [BMS-986094]
- intracellular miRNA upregulation in hiPSC-CM, in words [1]: lowest upregulation of miRNAs was detected at the highest concentration tested
- miRNAs hiPSC-CM pellet, MEC overall [1]: 0.1 µM
- miRNAs upregulated at the MEC overall (hiPSC-CM pellet) [1]: miR-29a-5p, miR-365a-5p
- fold induction at 0.1 µM [1, 4]: 1.7
- fold induction at 0.3 µM [1, 4]: 1
- fold induction at 1 µM [1, 4]: 1.3
- fold induction at 3 µM [1, 4]: 1.3
- fold induction at 0.1 µM [1, 5]: 6.3
- fold induction at 0.3 µM [1, 5]: 1
- fold induction at 1 µM [1, 5]: 1.2
- fold induction at 3 µM [1, 5]: 0.5
- fold induction at 0.1 µM [1, 6]: 0.3
- fold induction at 0.3 µM [1, 6]: 2.9
- fold induction at 1 µM [1, 6]: 2.8
- fold induction at 3 µM [1, 6]: 5.2
- fold induction at 0.1 µM [1, 7]: 1.3
- fold induction at 0.3 µM [1, 7]: 3.3
- fold induction at 1 µM [1, 7]: 2
- fold induction at 3 µM [1, 7]: 1.3
- fold induction at 0.1 µM [1, 8]: 1.8
- fold induction at 0.3 µM [1, 8]: 4.2
- fold induction at 1 µM [1, 8]: 11.3
- fold induction at 3 µM [1, 8]: 1.4
- fold induction at 0.1 µM [1, 9]: 1
- fold induction at 0.3 µM [1, 9]: 8.8
- fold induction at 1 µM [1, 9]: 7.1
- fold induction at 3 µM [1, 9]: 5.5
- fold induction at 0.3 µM [1, 10]: 0.5
- fold induction at 1 µM [1, 10]: 3.3
- fold induction at 3 µM [1, 10]: 8.2
- fold induction at 0.1 µM [1, 11]: 0.5
- fold induction at 0.3 µM [1, 11]: 2.7
- fold induction at 1 µM [1, 11]: 8.8
- fold induction at 0.1 µM [1, 12]: 1.7
- fold induction at 0.3 µM [1, 12]: 1.3
- fold induction at 1 µM [1, 12]: 1.1
- fold induction at 3 µM [1, 12]: 1
- fold induction at 0.1 µM [1, 13]: 2.2
- fold induction at 0.3 µM [1, 13]: 0.7
- fold induction at 1 µM [1, 13]: 1.3
- fold induction at 3 µM [1, 13]: 0.7
- Beating Rate MEC ([2]; human, 72 h): 0.048 µM
- RTCA, MEC (BR) ([2]; human, 72 h): 0.048 µM
- Spike Amplitude (SA) MEC ([2]; human, 72 h): 0.16 µM

- miRNAs hiPSC-CM pellet, MEC overall [1]: 0.1 µM
- miRNAs upregulated at the MEC overall (hiPSC-CM pellet) [1]: miR-187-3p
- Field Potential Duration MEC ([2]; human, 72 h): 3 µM
- Spike Amplitude (SA) MEC ([2]; human, 72 h): 0.3 µM
Compound: COc1cc([C@@H]2c3cc4c(cc3[C@@H](O[C@@H]3O[C@@H]5CO[C@@H](C)O[C@H]5[C@H](O)[C@H]3O)[C@H]3COC(=O)[C@H]23)OCO4)cc(OC)c1O [Etoposide]
- Cmax total ([3]; Supplementary Table 1): 33.4 µM
- Cmax total ([3]; Table 1): 33.40 µM

Compound: Endothelin-1
- hsa-miR-133b fold change [1]: 2.7 and 3.5 and 3.1
- hsa-miR-208b-3p fold change [1]: 1.6 and 1.5 and 1.1 and 1.0
- Contractility Amplitude magnitude of effect at MEC ([2]; hiPSC-CM, 72-hour treatment): -20%
- Field Potential Duration magnitude of effect at MEC ([2]; hiPSC-CM, 72-hour treatment): +20%
- Spike Amplitude (SA) magnitude of effect at MEC ([2]; hiPSC-CM, 72-hour treatment): -52%

- miRNAs upregulated at the MEC overall (hiPSC-CM pellet) ([1]; fold change ≥2, 72 h): miR-126-3p, miR-187-3p
- miRNAs hiPSC-CM pellet, MEC overall ([1]; lowest concentration tested which produced miRNA upregulation (fold change ≥2), 72 h): 0.01 µM
- Field Potential Duration MEC ([2]; hiPSC-CM, 72-hour treatment, at least 10% change): 0.1 µM
- Spike Amplitude (SA) MEC ([2]; human, 72 h): 0.01 µM
Compound: CCCCCNC(=N)N/N=C/c1c[nH]c2ccc(OC)cc12 [Tegaserod]
- Cmax total ([3]; Supplementary Table 1): 0.08 µM
- Cmax total ([3]; Table 1): 0.08 µM
- fold induction at 0.01 µM [1, 4]: 0.8
- fold induction at 0.03 µM [1, 4]: 1.4
- fold induction at 0.1 µM [1, 4]: 1.3
- fold induction at 0.3 µM [1, 4]: 2
- fold induction at 0.01 µM [1, 6]: 2
- fold induction at 0.03 µM [1, 6]: 4.9
- fold induction at 0.1 µM [1, 6]: 0.9
- fold induction at 0.3 µM [1, 6]: 3.2
- fold induction at 0.01 µM [1, 8]: 0.5
- fold induction at 0.03 µM [1, 8]: 0.7
- fold induction at 0.1 µM [1, 8]: 1.2
- fold induction at 0.3 µM [1, 8]: 0.9
- fold induction at 0.01 µM [1, 9]: 1.8
- fold induction at 0.03 µM [1, 9]: 3.9
- fold induction at 0.1 µM [1, 9]: 1.9
- fold induction at 0.3 µM [1, 9]: 15.7
- fold induction at 0.01 µM [1, 10]: 0.7
- fold induction at 0.03 µM [1, 10]: 1.3
- fold induction at 0.1 µM [1, 10]: 0.9
- fold induction at 0.3 µM [1, 10]: 1
- fold induction at 0.01 µM [1, 11]: 2.5
- fold induction at 0.03 µM [1, 11]: 2
- fold induction at 0.1 µM [1, 11]: 2
- fold induction at 0.3 µM [1, 11]: 3.7
- fold induction at 0.01 µM [1, 12]: 1.8
- fold induction at 0.03 µM [1, 12]: 1.2
- fold induction at 0.1 µM [1, 12]: 1.7
- fold induction at 0.3 µM [1, 12]: 1.4
- fold induction at 0.01 µM [1, 14]: 0.8
- fold induction at 0.03 µM [1, 14]: 0.8
- fold induction at 0.1 µM [1, 14]: 0.9
- fold induction at 0.3 µM [1, 14]: 0.7
- Beating rate (BR) MEC [2, 15]: ND (ND – not detected, magnitude of change was lower than 20%)
- Cell index (CI) MEC [2, 15]: ND (ND – not detected, magnitude of change was lower than 20%)
- RTCA, MEC (BR) ([2]; hiPSC-CM, change ≥20%, Table 2): ND (ND – not detected, magnitude of change was lower than 20% for CI/BR)
- RTCA, MEC (CI) ([2]; hiPSC-CM, change ≥20%, Table 2): ND (ND – not detected, magnitude of change was lower than 20% for CI/BR)
